From PMC5866846 (Archives of Toxicology, 2017)

Legend:
CYP2C8 = target: T1, CYP2C8 (Homo sapiens, UniProt P10632); test: CYP2C8 activity in upcyte hepatocytes after treatment (probe substrate cocktail); type: cell-based; set-up: host or cells: upcyte hepatocytes 653-03 and 653-03 #138 (653-03 2D6); settings: upcyte hepatocytes, 72 h, 50 pM to 5 µM; read-out: EC50 of induction of CYP2C8 activity
T1 sequence (P10632 1-490): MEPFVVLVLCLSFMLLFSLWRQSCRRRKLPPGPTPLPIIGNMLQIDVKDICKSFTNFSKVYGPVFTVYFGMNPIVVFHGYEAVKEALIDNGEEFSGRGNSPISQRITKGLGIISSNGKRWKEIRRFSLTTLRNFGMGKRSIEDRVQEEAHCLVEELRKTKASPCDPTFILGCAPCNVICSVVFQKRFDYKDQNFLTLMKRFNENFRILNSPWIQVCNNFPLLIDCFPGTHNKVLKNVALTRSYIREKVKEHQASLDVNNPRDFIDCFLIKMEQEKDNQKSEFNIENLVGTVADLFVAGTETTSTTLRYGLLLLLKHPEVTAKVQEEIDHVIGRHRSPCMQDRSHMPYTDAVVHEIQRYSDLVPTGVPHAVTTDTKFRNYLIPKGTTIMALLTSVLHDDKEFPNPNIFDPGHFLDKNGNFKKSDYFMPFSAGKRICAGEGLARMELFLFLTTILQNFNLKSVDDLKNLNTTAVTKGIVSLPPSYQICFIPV
Description: (§1) Cells were cultivated in hepatocyte culture medium at 37 °C and 5 °% CO2 in a humidified incubator. Before starting experiments, cells were cultivated in hepatocyte culture medium containing 0.5% (v/v) DMSO (Preculture medium) for 5 days (density of 0.8 × 10^4 cells/cm^2) and were subcultivated in high-performance medium containing 0.1% (v/v) DMSO (Metabolism conditioning medium) for 3–5 days (density of 1.6 × 10^5 cells/cm^2, confluence). The medium was replaced every 2–3 days.
(§2) In HLM and supersome™ incubations the formation rate is given as nmol µg^−1 min^−1 and fmol pmol^−1 min^−1, respectively, and was calculated as the mean ± SD. […] The intrinsic Clearance (Clint) was given as Vmax/Km ratio. […] Activity of CYP enzymes in induction assays is given as the fold-change (mean ± SD) compared to the corresponding DMSO-treated control. […] Gene expression patterns of treated cells are given as fold-change compared to the corresponding DMSO-treated control samples, as described above. […] In induction and inhibition experiments corresponding EC50 and IC50 values were calculated by nonlinear regression. In all experiments a level of probability (p) ≤ 0.05 for statistical testing was considered significant.
(§3) As control 0.05 % DMSO was used. The basal CYP activity and induction of CYP activity compared to the DMSO control were measured via HPLC-ESI-MS/MS.

CYP3A4 = CYP3A4 activity in upcyte hepatocytes after treatment (probe substrate cocktail); settings: human, probe atorvastatin (35 µM), EC50 of induction of CYP3A4 activity, upcyte hepatocytes, 72 h, 50 pM to 5 µM
Description: as §1, §2, §3

CYP3A4 gene expression = CYP3A4 gene expression in upcyte hepatocytes (Fluidigm RT-PCR); settings: 5 µM, 72 h, both cell strains
Source text: (§4) Total RNA was isolated from cells using the Direct-zol™ RNA MiniPrep kit (Zymo Research Corp., Irvine, California). cDNA was synthesized using TaqMan Reverse Transcription Reagents (Life technologies, Applera GmbH, Darmstadt, Germany) and the expression of 25 genes representative of phase I and phase II drug metabolism and transport was quantified by Fluidigm’s BioMark HD high-throughput quantitative chip platform (Fluidigm Corporation, San Francisco, USA). For relative gene expression analysis, the delta-delta-Ct (ΔΔCt) method was used: the Ct values of the target mRNA were first normalized to those of the endogenous control glyceraldehyde-3-phosphate dehydrogenase (GAPDH) followed by dividing values of experimental samples by their corresponding DMSO-treated controls to calculate the x-fold changes of mRNA expression.
as §2, §3

CYP2C19 = CYP2C19 (Homo sapiens, UniProt P33261); test: CYP2C19 activity in upcyte hepatocytes after treatment (probe substrate cocktail); type: cell-based; set-up: host or cells: upcyte hepatocytes 653-03 and 653-03 #138 (653-03 2D6); settings: upcyte hepatocytes, 72 h, 50 pM to 5 µM; read-out: EC50 of induction of CYP2C19 activity
CYP2C19, sequence (P33261 whole entry): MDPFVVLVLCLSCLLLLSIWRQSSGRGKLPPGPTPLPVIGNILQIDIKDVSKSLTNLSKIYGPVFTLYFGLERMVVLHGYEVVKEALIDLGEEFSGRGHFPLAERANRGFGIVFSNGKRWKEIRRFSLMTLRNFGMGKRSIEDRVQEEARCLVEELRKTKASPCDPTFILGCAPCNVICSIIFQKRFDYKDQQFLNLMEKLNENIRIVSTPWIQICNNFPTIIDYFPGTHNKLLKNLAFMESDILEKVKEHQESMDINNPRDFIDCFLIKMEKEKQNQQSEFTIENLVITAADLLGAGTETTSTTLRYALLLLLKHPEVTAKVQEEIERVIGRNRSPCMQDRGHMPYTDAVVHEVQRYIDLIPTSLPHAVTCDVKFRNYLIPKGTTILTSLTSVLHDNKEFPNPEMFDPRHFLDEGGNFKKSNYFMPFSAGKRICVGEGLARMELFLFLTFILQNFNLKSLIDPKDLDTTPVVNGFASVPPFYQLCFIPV
Description: as §1, §2, §3

ABCG2 gene expression = ABCG2 gene expression in upcyte hepatocytes (Fluidigm RT-PCR); type: cell-based, human; settings: 5 µM, 72 h, both cell strains
Source text: (§5) Differences between induced and control samples were compared using Welch’s t-test (GraphPad Prism, version 5.04), when the fold-change was considered biologically relevant (1.5-fold increase or decrease in fold-changes) and corrected for multiple testing according to Bonferroni. […] An unpaired t-test assuming unequal variances was used for testing of differences in the expression patterns, when the fold-change was considered biologically relevant (1.5-fold increase or decrease in fold-changes) and corrected using Bonferroni adjustments.

SLC10A1 gene expression = SLC10A1 gene expression in upcyte hepatocytes (Fluidigm RT-PCR); type: cell-based, human; settings: 5 µM, 72 h, both cell strains
Source text: as §5

CYP2B6 = CYP2B6 activity in upcyte hepatocytes after treatment (probe substrate cocktail); settings: human, probe bupropion (25 µM)
Description: as §1, §2, §3

[1] = tested on: CYP1A2, 2C19, 2C9, 2B6, 3A4 and 2C8; test: CYP activity in upcyte hepatocytes after treatment, all tested CYP isoenzymes together; type: cell-based, human; settings: 5 µM, 72 h
Description: as §1, §2

CYP1A1 gene expression = CYP1A1 gene expression in upcyte hepatocytes (Fluidigm RT-PCR); type: cell-based, human; settings: 5 µM, 72 h, both cell strains
Source text: as §5

SLC22A7 gene expression = SLC22A7 gene expression in upcyte hepatocytes (Fluidigm RT-PCR); type: cell-based, human; settings: 5 µM, 72 h, both cell strains
Source text: as §4
In HLM and supersome™ incubations the formation rate is given as nmol µg^−1 min^−1 and fmol pmol^−1 min^−1, respectively, and was calculated as the mean ± SD. […] The intrinsic Clearance (Clint) was given as Vmax/Km ratio. […] In induction and inhibition experiments corresponding EC50 and IC50 values were calculated by nonlinear regression. […]
as §3

[2] = tested on: upcyte hepatocytes 653-03; test: Tam metabolism in upcyte hepatocytes 653-03 (parental), metabolites in culture medium; type: in vitro ADME, human; settings: 1 µM Tam, 653-03 cells
Description: (§6) The medium was replaced every 2–3 days. […].
(§7) The culture medium was collected after 24, 48, 72, 96 and 144 h followed by metabolite measurements using HPLC-ESI-MS/MS.
(§8) Protein was precipitated by the addition of ACN containing 1% of acetic acid and the corresponding deuterated internal standards to the same volume of the sample followed by centrifugation at 20.000 g for 15 min at RT. […] Analytes were separated on a Zorbax Eclipse Plus C18 column (1.8 µm, 100 × 2.1 mm, Agilent technologies) and detected on a 6460 triple quadrupole mass spectrometer (Agilent technologies) in positive ESI MRM mode. Glucuronides of estrogen-like metabolites were detected separately via MS/MS-measurements in negative ESI MRM mode.
(§9) […]. […] […].

CYP1A2 = CYP1A2 activity in upcyte hepatocytes after treatment (probe substrate cocktail)
Description: as §1, §2, §3

CYP2C9 = CYP2C9 (Homo sapiens, UniProt P11712); test: CYP2C9 activity in upcyte hepatocytes after treatment (probe substrate cocktail); type: cell-based; set-up: host or cells: upcyte hepatocytes 653-03 and 653-03 #138 (653-03 2D6); settings: upcyte hepatocytes, 72 h, 50 pM to 5 µM; read-out: EC50 of induction of CYP2C9 activity
CYP2C9, sequence (P11712 whole entry): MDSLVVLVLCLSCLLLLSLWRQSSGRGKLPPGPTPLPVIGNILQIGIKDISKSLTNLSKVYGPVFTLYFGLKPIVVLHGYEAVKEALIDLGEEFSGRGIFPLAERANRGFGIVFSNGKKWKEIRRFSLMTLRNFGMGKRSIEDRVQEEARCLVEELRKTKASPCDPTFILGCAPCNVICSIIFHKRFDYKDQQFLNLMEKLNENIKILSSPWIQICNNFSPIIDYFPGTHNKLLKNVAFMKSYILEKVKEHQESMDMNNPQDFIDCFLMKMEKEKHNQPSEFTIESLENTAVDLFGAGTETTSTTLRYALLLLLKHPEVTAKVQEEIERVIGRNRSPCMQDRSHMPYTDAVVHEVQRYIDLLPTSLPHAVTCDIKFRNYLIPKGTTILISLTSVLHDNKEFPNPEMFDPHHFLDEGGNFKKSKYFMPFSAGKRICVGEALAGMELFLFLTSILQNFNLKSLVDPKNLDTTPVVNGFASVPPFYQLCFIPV
Description: as §1, §2, §3

estrogen receptor = tested on: estrogen receptor; set-up: method as in Johnson et al. [1989]; Murphy et al. [1990]; settings: in vitro, estrogen-dependent breast cancer cell lines; ref Johnson et al. [1989]; Murphy et al. [1990]; cited from earlier work
[3] = tested on: upcyte hepatocytes 653-03 2D6; test: Tam metabolism in upcyte hepatocytes 653-03 2D6, metabolites in culture medium; type: in vitro ADME, human
Description: as §6, §7, §8, §9

CCC(=C(c1ccc(O)cc1)c1ccc(O)cc1)c1ccccc1 [Tam-Bis, 4-[1-(4-hydroxyphenyl)-2-phenylbut-1-en-1-yl]phenol]
EC50 (CYP2C8): 400 nM | EC50 at 72 h (CYP3A4): 178 nM | CYP3A4 gene expression, induction vs DMSO control (CYP3A4 gene expression): up to 4.5 fold | CYP3A4 gene expression, induction vs DMSO control (CYP3A4 gene expression; listed as tamoxifen bisphenol): up to 5.6 fold | EC50 (CYP2C19): 30.5 nM | ABCG2 gene expression, induction vs DMSO control (ABCG2 gene expression): up to 4.5 fold | SLC10A1 gene expression, downregulation (fold lower) (SLC10A1 gene expression): up to 2.5 fold | EC50 at 72 h (CYP2B6): 187 nM | inhibitory effect on the tested CYP enzymes [1]: no inhibitory effect | CYP1A1 gene expression, induction vs DMSO control (CYP1A1 gene expression): up to 4.5 fold | SLC22A7 gene expression, fold lower than DMSO control (SLC22A7 gene expression): up to 2.5 fold | concentration in the supernatant [2]: 30.6 pM | EC50 at 72 h (CYP1A2; human, EC50 of induction of CYP1A2 activity, 50 pM to 5 µM): > 400 nM | EC50 (CYP1A2; read-out: EC50 of induction of CYP1A2 activity, 72 h, 50 pM to 5 µM): 518 nM | EC50 (CYP2C9): 488 nM | agonism regarding estrogen-regulated mRNA expression (estrogen receptor): full agonists | concentration in the supernatant ([3]; 1 µM Tam, 653-03 2D6 cells): up to 87.5 pM | concentration in the supernatant of 653-03 2D6 cells relative to parental cells ([3]; cells incubated with 1 µM Tam up to 144 h): up to 4 times
